The text below walks through data of ChEMBL document CHEMBL1201862, “PubChem BioAssay data set” (2004).

Each structure is given as a SMILES string. Activity calls are given as the source filed them.

The target in one assay is Estrogen receptor beta (Homo sapiens, UniProt Q92731).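 Also: recombinant ER-beta bound to coactivator SRC1 peptide in presence of estradiol agonist; inhibitors block coactivator peptide binding and lower the FRET signal.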
In another assay the target is T1, Estrogen receptor (Homo sapiens, UniProt P03372).
T1 sequence (P03372 whole entry): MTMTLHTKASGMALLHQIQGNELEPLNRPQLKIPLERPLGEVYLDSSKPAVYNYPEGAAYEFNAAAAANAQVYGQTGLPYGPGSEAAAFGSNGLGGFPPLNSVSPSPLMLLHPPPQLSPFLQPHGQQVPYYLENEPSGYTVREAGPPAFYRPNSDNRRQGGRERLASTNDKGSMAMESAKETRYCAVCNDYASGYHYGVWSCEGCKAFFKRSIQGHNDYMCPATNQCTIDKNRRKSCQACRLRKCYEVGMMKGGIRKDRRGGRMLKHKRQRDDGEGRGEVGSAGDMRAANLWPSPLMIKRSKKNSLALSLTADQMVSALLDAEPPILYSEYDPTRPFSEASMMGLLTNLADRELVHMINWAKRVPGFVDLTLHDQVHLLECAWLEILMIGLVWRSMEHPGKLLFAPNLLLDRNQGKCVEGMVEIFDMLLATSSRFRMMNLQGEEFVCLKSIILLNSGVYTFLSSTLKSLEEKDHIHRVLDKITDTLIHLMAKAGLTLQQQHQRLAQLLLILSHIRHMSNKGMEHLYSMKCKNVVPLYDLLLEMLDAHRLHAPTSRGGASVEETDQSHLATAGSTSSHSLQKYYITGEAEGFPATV

Assay [1] addresses DNA dC->dU-editing enzyme APOBEC-3G (Homo sapiens, UniProt Q9HC16). Format: functional.
Assay [2] has as its target DNA dC->dU-editing enzyme APOBEC-3A (Homo sapiens, UniProt P31941). Kind of assay: Dose Response confirmation of small molecule APOBEC3A DNA Deaminase Inhibitors via a fluorescence-based single-stranded DNA deaminase assay. [Related pubchem assays (depositor defined):AID493011, AID493024]. Format: functional.
In the next assay the target is Trypsin (Sus scrofa, UniProt P00761). Kind of assay: porcine trypsin inhibitors, dose response, selectivity assay for Rce1 protease inhibitor project, biochemical, quenched peptide fluorescence, cherry-pick (AID 488789).
Sequence of Trypsin (P00761 whole entry): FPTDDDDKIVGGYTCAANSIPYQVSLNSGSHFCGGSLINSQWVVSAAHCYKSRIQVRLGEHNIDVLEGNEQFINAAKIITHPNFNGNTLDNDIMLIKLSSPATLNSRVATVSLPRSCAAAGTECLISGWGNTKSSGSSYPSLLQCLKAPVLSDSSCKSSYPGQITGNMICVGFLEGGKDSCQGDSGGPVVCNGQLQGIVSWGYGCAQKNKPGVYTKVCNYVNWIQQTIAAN
Assay [3] addresses T2, Heat shock factor protein 1 (Mus musculus, UniProt P38532).
T2 sequence (P38532 whole entry): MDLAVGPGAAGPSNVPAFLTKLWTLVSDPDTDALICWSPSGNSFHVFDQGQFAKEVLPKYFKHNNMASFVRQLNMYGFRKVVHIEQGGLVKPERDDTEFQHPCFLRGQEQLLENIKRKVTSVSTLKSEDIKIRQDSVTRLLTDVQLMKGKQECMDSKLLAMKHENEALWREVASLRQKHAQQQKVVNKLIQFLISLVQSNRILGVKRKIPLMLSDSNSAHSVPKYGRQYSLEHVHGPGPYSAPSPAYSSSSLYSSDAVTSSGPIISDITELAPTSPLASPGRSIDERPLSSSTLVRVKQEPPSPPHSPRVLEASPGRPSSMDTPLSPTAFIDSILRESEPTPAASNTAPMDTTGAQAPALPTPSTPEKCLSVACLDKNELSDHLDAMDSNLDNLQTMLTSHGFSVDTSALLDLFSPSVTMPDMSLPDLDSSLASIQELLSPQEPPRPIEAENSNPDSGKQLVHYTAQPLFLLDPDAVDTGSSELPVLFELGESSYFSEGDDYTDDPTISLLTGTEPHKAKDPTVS
In words: HSF1 potentiators in luciferase reporter cells, confirmation, cell-based, NIH3T3, luminescence, dose retest (AID 435004).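 Also: stress induced by proteasome inhibitor MG132 added 30 min after compound; luciferase reporter driven by HSF1 response element in NIH3T3 cells; actives raise luminescence as potentiators of the MG132 stress response.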 It is filed as functional. (In general: A reporter such as luciferase makes a cellular process visible.)

A further assay concerns the target T3, Aminopeptidase N (Plasmodium falciparum FcB1/Columbia, UniProt O96935).
T3 sequence (O96935 whole entry): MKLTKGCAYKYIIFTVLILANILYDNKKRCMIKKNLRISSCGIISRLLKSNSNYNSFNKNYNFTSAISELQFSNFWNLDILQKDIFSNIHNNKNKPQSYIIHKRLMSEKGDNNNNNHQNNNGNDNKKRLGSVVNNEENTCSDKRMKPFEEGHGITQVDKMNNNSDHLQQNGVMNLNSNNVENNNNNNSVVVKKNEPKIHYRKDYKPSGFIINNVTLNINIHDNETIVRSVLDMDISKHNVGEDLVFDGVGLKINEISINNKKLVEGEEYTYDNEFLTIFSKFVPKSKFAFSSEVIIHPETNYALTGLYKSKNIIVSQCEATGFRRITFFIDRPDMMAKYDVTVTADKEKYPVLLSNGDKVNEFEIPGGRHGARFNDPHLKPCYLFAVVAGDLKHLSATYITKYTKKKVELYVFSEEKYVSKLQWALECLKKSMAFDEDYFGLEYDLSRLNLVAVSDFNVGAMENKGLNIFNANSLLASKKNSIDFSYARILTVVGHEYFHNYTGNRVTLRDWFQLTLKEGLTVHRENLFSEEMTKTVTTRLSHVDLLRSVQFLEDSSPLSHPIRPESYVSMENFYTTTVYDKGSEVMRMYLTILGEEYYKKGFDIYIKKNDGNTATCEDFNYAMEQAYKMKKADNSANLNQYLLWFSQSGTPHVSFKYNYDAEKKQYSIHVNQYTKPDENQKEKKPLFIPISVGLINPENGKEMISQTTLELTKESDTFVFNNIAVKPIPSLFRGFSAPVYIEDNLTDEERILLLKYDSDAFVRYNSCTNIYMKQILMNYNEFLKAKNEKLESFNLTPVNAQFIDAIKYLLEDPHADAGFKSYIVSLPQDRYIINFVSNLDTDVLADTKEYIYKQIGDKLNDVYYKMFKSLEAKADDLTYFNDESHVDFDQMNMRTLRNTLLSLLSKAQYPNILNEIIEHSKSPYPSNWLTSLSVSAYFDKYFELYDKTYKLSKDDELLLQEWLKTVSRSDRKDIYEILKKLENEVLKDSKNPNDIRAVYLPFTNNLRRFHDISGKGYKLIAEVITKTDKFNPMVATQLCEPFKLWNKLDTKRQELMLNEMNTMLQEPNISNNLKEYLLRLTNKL
Kind of assay: P. falciparum M1AAP inhibitors, biochemical, fluorogenic H-Leu-NHMec substrate, 1536-well (AID 1445). Set-up: species or system Plasmodium falciparum 3D7, 3D7.

The next assay deals with Cytochrome P450 2C9 (Homo sapiens, UniProt P11712). The conditions noted are these: Potency.
Sequence of Cytochrome P450 2C9 (P11712 whole entry): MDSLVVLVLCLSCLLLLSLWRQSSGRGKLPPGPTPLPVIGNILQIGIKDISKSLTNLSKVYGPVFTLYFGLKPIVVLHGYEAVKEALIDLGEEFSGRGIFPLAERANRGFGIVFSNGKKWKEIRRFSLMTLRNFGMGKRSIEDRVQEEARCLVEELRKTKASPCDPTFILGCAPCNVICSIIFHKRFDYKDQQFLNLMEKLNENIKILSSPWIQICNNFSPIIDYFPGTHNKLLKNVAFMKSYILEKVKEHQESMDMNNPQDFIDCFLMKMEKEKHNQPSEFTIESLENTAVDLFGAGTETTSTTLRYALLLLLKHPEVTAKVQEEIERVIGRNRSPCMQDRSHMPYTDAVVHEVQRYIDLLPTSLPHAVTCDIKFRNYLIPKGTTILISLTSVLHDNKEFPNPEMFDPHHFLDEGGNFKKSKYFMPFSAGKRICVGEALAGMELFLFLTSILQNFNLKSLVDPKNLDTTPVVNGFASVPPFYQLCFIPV
The target of a further assay is Paired box protein Pax-8 (Homo sapiens, UniProt Q06710). Kind of assay: inhibitors of PAX8-driven TPO luciferase reporter, dose response, RMG-I cells, cherry-pick (AID 687027).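 Also: luciferase reporter driven by Pax8 target thyroperoxidase promoter measured by SteadyGlo luminescence.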 Format: functional, cell-based.
Sequence of Paired box protein Pax-8 (Q06710 whole entry): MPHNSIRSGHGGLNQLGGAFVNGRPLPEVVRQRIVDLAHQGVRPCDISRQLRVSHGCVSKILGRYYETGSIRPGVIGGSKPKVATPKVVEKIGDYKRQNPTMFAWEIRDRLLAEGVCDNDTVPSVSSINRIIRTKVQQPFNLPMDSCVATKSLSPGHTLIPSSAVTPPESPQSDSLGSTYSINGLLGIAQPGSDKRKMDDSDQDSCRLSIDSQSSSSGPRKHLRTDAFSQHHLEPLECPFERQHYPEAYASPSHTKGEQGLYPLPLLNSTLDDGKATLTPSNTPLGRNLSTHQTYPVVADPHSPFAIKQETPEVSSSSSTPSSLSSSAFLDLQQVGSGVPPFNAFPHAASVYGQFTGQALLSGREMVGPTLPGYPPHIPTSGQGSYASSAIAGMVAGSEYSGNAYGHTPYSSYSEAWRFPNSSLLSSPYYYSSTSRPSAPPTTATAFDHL
Assay [4] is described as follows: NIH-3T3 fibroblast cytotoxicity, dose response, cytotoxicity control, cell-based, fluorescence, Alamar Blue, secondary assay (AID 2327).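 Also: NIH-3T3 mouse fibroblasts cultured with fluconazole at 8 µg/mL.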 It is filed as functional.
For assay [5], the target named is T4, Mannose-6-phosphate isomerase (Homo sapiens, UniProt P34949).
T4 sequence (P34949 whole entry): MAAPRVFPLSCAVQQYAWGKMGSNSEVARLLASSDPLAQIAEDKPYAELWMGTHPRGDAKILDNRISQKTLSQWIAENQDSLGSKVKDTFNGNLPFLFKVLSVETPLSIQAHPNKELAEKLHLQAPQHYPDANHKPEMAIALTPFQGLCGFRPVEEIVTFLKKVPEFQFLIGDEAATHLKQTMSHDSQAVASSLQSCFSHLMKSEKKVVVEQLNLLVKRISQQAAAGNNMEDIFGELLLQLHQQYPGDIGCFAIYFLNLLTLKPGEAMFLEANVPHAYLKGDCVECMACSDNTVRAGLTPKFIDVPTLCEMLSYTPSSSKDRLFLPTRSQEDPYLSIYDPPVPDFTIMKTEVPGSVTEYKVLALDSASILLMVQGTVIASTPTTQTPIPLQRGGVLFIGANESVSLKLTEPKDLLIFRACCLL
In words: human PMI inhibitors, high substrate, primary screen, biochemical, fluorescence intensity, high mannose 6-phosphate (AID 1220).

The target of assay [6] is T2, Heat shock factor protein 1. Kind of assay: inhibition of MG132-induced HSE-luciferase signal, confirmation, cell-based, NIH3T3, luminescence, dose retest (AID 2382).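 Also: NIH3T3 fibroblasts with HSF1-driven luciferase reporter stressed by proteasome inhibitor MG132; luminescence from HSF1-driven luciferase expression after 8 hours of MG132 stress.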 Format: functional.
Assay [7] can be described thus: C. albicans growth with fluconazole, confirmation, fluorescence, retest (AID 2467). Format: functional, cell-based.
Assay [8] can be described thus: HEp-2 cell cytotoxicity, dose response, cytotoxicity control for RSV inhibitor project, HTS (AID 2410). It is filed as functional. The following applies: human respiratory syncytial virus.
Assay [9] concerns the target Glyceraldehyde-3-phosphate dehydrogenase (Homo sapiens, UniProt P04406).
Assay [10] deals with T5, Alkaline phosphatase, tissue-nonspecific isozyme (Homo sapiens, UniProt P05186).
T5 sequence (P05186 whole entry): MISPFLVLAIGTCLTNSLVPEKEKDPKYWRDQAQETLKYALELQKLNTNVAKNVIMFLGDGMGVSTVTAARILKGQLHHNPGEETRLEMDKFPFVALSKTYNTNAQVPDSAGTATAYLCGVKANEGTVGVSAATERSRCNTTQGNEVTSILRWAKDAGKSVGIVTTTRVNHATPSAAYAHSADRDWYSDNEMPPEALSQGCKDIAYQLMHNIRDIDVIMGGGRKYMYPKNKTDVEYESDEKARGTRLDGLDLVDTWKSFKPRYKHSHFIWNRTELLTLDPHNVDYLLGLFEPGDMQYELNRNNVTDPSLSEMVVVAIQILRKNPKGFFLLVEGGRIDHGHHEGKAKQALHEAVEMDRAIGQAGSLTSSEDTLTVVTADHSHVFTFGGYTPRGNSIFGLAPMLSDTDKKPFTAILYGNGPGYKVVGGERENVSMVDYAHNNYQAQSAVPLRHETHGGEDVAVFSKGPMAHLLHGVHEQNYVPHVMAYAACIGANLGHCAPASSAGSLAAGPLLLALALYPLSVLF
Kind of assay: human TNAP enzyme inhibitors, SAR follow-up, biochemical, luminescent, dose response (AID 1056).

Sequence of Glyceraldehyde-3-phosphate dehydrogenase (P04406 whole entry): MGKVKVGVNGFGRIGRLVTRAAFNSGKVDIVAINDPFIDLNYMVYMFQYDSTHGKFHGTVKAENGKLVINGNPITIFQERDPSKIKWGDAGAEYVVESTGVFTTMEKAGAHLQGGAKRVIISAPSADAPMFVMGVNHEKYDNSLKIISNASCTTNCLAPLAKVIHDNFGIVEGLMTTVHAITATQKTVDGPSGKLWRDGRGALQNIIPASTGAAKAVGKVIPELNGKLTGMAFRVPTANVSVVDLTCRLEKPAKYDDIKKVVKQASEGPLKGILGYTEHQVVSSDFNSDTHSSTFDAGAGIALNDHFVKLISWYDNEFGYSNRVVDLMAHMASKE
Sequence of DNA dC->dU-editing enzyme APOBEC-3G (Q9HC16 whole entry): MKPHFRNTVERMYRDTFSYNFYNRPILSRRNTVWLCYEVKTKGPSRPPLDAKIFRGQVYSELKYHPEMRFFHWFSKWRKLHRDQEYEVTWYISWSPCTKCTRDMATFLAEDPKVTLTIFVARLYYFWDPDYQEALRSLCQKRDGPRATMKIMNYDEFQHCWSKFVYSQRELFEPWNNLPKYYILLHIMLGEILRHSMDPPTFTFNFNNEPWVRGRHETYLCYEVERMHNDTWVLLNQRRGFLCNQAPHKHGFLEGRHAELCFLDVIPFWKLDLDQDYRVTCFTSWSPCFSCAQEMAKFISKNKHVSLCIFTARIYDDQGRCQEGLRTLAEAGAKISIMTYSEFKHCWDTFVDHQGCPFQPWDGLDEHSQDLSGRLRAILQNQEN
Sequence of DNA dC->dU-editing enzyme APOBEC-3A (P31941 whole entry): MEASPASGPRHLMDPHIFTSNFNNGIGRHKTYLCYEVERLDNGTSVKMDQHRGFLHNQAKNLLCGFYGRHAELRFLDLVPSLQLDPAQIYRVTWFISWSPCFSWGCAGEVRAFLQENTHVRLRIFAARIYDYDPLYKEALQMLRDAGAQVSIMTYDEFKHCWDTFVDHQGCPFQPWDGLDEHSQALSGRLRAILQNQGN
Sequence of Estrogen receptor beta (Q92731 whole entry): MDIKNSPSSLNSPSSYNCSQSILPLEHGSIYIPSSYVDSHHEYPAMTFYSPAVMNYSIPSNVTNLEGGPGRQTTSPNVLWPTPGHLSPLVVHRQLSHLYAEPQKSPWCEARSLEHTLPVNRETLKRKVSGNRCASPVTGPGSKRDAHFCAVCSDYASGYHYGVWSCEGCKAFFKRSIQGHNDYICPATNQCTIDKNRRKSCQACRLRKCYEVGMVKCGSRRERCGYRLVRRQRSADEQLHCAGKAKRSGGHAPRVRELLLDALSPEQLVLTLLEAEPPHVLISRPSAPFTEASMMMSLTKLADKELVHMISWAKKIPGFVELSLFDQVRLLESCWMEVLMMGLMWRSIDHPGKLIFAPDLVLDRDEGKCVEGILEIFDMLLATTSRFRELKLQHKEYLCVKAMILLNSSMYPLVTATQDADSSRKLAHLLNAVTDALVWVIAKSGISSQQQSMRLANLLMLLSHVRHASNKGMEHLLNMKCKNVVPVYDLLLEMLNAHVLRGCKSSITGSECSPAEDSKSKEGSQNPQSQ

For the molecule `O=C(Cc1cccs1)Nc1ccccn1`, the IC50 (commonly the concentration at which inhibition is half-maximal) was 16.8 µM (active) on Estrogen receptor beta and 13.4 µM (active) at Estrogen receptor. On to `CC(C)C(CO)N1CCN(Cc2ccccc2)CCC1=O` (stereo not given), for which the IC50 is 10.1 µM (active) in assay [1] and 8.79 µM (active) in [2].

Consider `Cc1cc2nn(-c3cccc4ccccc34)nc2cc1NC(=O)c1cccs1`, for which the half-maximal activity concentration (AC50) (usually the concentration giving half of the maximal activity seen) at Trypsin is 8.06 µM (active). For the molecule `Cc1ccc(S(=O)(=O)NNC(=O)c2sc3nc(C)cc(C)c3c2-n2cccc2)cc1`, the EC50 – broadly, the concentration at which the effect is half-maximal – in assay [3] is > 260 µM (inactive). Moreover, on Aminopeptidase N, the IC50 is 26.9 µM (active). For `CNC(=O)/C(C#N)=C\c1ccc(CNS(=O)(=O)c2ccc(Cl)cc2)o1`, the 50% inhibitory concentration (IC50) in assay [1] was 2.81 µM (active); in [2] it was 3.02 µM (active). In the case of `CC(C)C[C@@H](CC(=O)N[C@@H](CCC(=O)O)CC(=O)O)NC(=O)[C@@H]1CCCC[C@H]1NC(=O)C[C@@H](NC(=O)C[C@H](CO)NC(=O)[C@@H]1CNCC[C@H]1N)C(C)C`, the AC50 on Cytochrome P450 2C9 was 31.6 µM (inconclusive). As for `Cc1cccc(NCc2ccc(O)c3ncccc23)c1C`, the AC50 at Paired box protein Pax-8 was 15 µM (active). Also, the values for the EC50 in assay [4], in [6] and in assay [7] were > 150 µM (inactive), > 195 µM (not active) and > 38 µM (not active), respectively. For the same molecule, the 50% inhibitory concentration (IC50) in [5] is > 50 µM (not active). Turning to `O=C(O)COc1ccc(/C=N/n2c(COc3ccccc3)nc3ccccc3c2=O)cc1`, the 50% inhibitory concentration (IC50) at Aminopeptidase N was 8.94 µM (active). In the case of `CC(C)C/N=C/c1c(O)c([N+](=O)[O-])cc2oc3c(c12)CCCC3`, in assay [5], the concentration for half-maximal inhibition (IC50) is given as > 50 µM (not active). Besides, the CC50 (usually the concentration that lowers cell viability or growth by half) in assay [8] was 25.3 µM (active). On to `CC(C)C[C@@H](CC(=O)N[C@@H](CCCN)CC(=O)N[C@@H]1CCNC[C@H]1C(=O)N[C@H](CC(=O)N[C@@H](CCC(=O)O)CC(=O)O)CC(C)C)NC(=O)[C@@H]1CNCC[C@H]1N`, for which, on Cytochrome P450 2C9, the AC50 was 39.8 µM (inconclusive).

With `COc1ccc(-c2[nH]nc3c2C2(C(=O)N(CC(=O)O)c4ccccc42)C(C#N)=C(N)O3)cc1OC` (stereo not given), at Aminopeptidase N, the concentration for half-maximal inhibition (IC50) was 43.3 µM (active).

For the molecule `Cc1nc(-c2cccnc2)c[nH]1`, the IC50 in assay [9] is > 100 µM (not active); in assay [10], > 100 µM (inactive). For `Cc1ccc(-c2ccc(C(=O)O)[nH]2)cc1`, in that order: > 100 µM (not active) and > 100 µM (inactive). Regarding `CC(C)C[C@@H](CC(=O)N[C@H](CC(=O)N[C@@H]1CCCC[C@H]1C(=O)N[C@H](CC(=O)N[C@@H](CCC(=O)O)CC(=O)O)Cc1ccccc1)C(C)C)NC(=O)[C@@H]1CNCC[C@H]1N`, the half-maximal activity concentration (AC50) at Cytochrome P450 2C9 was 31.6 µM (inconclusive).
